Consider 3 substances from patent US7754683B2, “Bioactive peptide of bone morphogenetic protein-2” (priority 2005, dated 2010).

Square brackets hold non-standard residues; d marks the D form. Ends that are not written are not given here. pS = N[C@@H](COP(=O)(O)O)C(=O)O

This assay concerns Wistar rats. The assay is described as follows: Experimental research on animal ectopic osteogenesis (peptide/collagen sponge implantation). The format is in vivo. The settings on record: for ectopic osteogenesis by CT scan imaging: 0.4 mg peptide on collagen sponge implanted in sacral spine muscles, CT at 3, 6, 8 weeks; for ectopic osteogenesis ability (overall result) / formation of new bone by histological examination (HE staining): 0.4 mg peptide/collagen sponge; for formation of new bone by histological examination (HE staining): eighth week. The method, then: The scaffold material is collagen sponge, the size of which is 5×5×5 mm^3. Three bone morphogenetic protein-2 active peptides are dissolved into saline solution, and then dropped on the collagen sponge in accordance with the 0.4 mg dose. Meanwhile, equivalent saline solution is dropped on the control pure collagen sponge, and freeze-dried for reserve after complete absorption.
(2) groups: 36 Wistar rats are randomly divided into three experimental groups, namely 0.4 mg bone morphogenetic protein-2 active peptide 1/collagen sponge group, 0.4 mg bone morphogenetic protein-2 active peptide 2/[…] group and 0.4 mg bone morphogenetic protein-2 active peptide 3/collagen sponge group, and the control group is using pure collagen sponge.
The anesthesia of rats is achieved by ketamine intraperitoneal injection. For two experimental groups, 0.4 mg bone morphogenetic protein-2 active peptide 1/collagen sponge and 0.4 mg bone morphogenetic protein-2 active peptide 2/collagen sponge are respectively implanted with 1 cm incision in the sacral spine muscles on the back. For […], pure collagen sponge of the same size is implanted into the gaps along one side of sacral spine muscles. CT radiography inspection of three rats groups is done after implantation in the 3, 6, 8 weeks, and then four rats of each group are killed at each time point. Local tissues of implant materials are sampled, after fixation by formaldehyde and paraffin-embedded sections, and histological observation is done with HE staining.

In the case of “C16H31O—NH—CCCCGGGS^[PO4]KIPKASSVPTELSAISTLYL”, the “ectopic osteogenesis by CT scan imaging” value was “significant ectopic osteogenesis”, the “ectopic osteogenesis ability (overall result)” value (“ectopic osteogenesis ability” below) is reported as “good ectopic osteogenesis ability” and the “formation of new bone by histological examination (HE staining)” value is on record as “significant formation of new bone”.

Take “CCCCDDDS^[PO4]KIPKASSVPTELSAISTLYL (CCCCDDD[pS]KIPKASSVPTELSAISTLYL; cysteine pairing not given here)”: the “ectopic osteogenesis by CT scan imaging” value is “significant ectopic osteogenesis”, the “ectopic osteogenesis ability” value is “good ectopic osteogenesis ability” and the “formation of new bone by histological examination (HE staining)” value is given as “significant formation of new bone”.

As for “S^[PO4]KIPKASSVPTELSAISTLYLDDD ([pS]KIPKASSVPTELSAISTLYLDDD)”, the “ectopic osteogenesis by CT scan imaging” value was “significant ectopic osteogenesis”, the “ectopic osteogenesis ability” value is “good ectopic osteogenesis ability” and the “formation of new bone by histological examination (HE staining)” value is recorded as “significant formation of new bone”.
